Where two headings read alike, the source gives them in different places.
Assays:
[1] = system: Salvinia molesta; experiment: Greenhouse spray test on giant salvinia, living biomass; assay type: in vivo; settings: 10 mL spray on three type III plants per container, day nine
Protocol: General Experimental Procedure: Observations of giant salvinia growth in a greenhouse were performed under 28 different treatment conditions and control conditions with NANOPURE™ water or 0.5% DYNE-AMIC® (methyl esters of C16-C18 fatty acids, polyalkyleneoxide modified polydimethylsiloxane, and alkylphenol ethoxylate 99%, (Helena, Collierville, Tenn., United States)) (v:v).
Materials—4-hydroxybenzoic acid (>95%, HPLC analysis) and 3,4-dihydroxybenzoic acid (>95%) were isolated from S. molesta matter using the method as described in (Li, Wang et al. 2013). Ethylparaben (>99%) was purchased from a commercial source. Each of 4-hydroxybenzoic acid, 3,4-dihydroxybenzoic acid, and ethylparaben were prepared as 50 mL experimental solutions with NANOPURE™ water at the concentration of 0.5, 1.0, 1.5, and 2.0%, respectively. 0.5, 1.0, 1.5, and 2.0% 4-hydroxybenzoic acid, 3,4-dihydroxybenzoic acid, and ethylparaben with 0.5% surfactant DYNE-AMIC® was also prepared as 50 mL experimental solutions with NANOPURE™ water. Mixtures of 4-hydroxybenzoic acid with 3,4-dihydroxybenzoic acid (2:1, w:w) were prepared as 50 mL experimental solutions with NANOPURE™ water at the total concentration of 0.5, 1.0, and 1.5%, respectively. 3,4-dihydroxybenzoic acid was mixed with ethylparaben (2:1, w:w) and prepared as 50 mL experimental solution with NANOPURE™ water at the total concentration of 0.5, 1.0, and 1.5%, respectively.
Bioassay—For each treatment, a total of nine healthy and untreated living plants of S. molesta (type III, the biomass of three plants weighs approximately 10 g) were cultured in tap water in three plastic containers severing as three replications (14×15 cm, 0.68 L) with three plants each in a greenhouse (30° C. during the day time and 20° C. at night). The three plants in each of the three containers per treatment were sprayed with 10 mL NANOPURE™ water, 0.5% DYNE-AMIC®, or the experimental solution. Plant growth and survival status were documented and photographed in each treatment on day nine after the treatment. Pairwise comparisons for all treatments (including Control) in living biomass were made using Tukey test at alpha=0.05, which was done using SAS (SAS 9.4).

[2] = system: S. molesta; experiment: Phytotoxic analysis by pipet application on upper or lower leaf surface; assay type: in vivo, Salvinia molesta; settings: for pest or weed control at 1 %: Salvinia molesta, topical, 72 h; for activity on upper or lower leaf surface applications: 1% solution, 72 hrs
Protocol: General Experimental Procedure: 4-Hydroxybenzoic and 3,4-dihydroxybenzoic acids and 14 of their analogs were purchased commercially. Each of 16 compounds were prepared as 5 mL experimental solutions with NANOPURE™ water at 1% concentration. A total of 102 healthy and untreated living type III plants of S. molesta (approximately 10 g in fresh weight each) were cultured and tested in 17 plastic containers (23×23 cm, 2.37 L) with six plants in each container in a greenhouse (30° C. during the day time and 20° C. at night). The first container served as the controls without any treatment, the plants in each of the other 16 containers were treated by one of the 16 testing compounds, respectively. The plants in each container were randomly classified into two groups evenly. For each plant in the first group, 10 μL of 1% experimental solution was applied by pipet on the upper surface of each blade of the six pairs of large floating leaves close to the terminal bud. For each plant in the second group, 10 μL of 1% experimental solution was applied by pipet on the lower surface of each blade of the six pairs of large floating leaves close to the terminal bud. The leaf surfaces were examined for damage and analyzed 72 hrs after the treatments.

[3] = 10 μL of 1% solution per blade, lower surface, read-out: Inhibition (%) Lower leaf Application
[4] = 10 μL of 1% solution per blade, upper surface, read-out: Inhibition (%) Upper leaf Application
[5] = read-out: Inhibition (%) Lower leaf Application, 10 μL of 1% solution per blade, lower surface
[6] = read-out: Inhibition (%) Upper leaf Application, 10 μL of 1% solution per blade, upper surface

CCOC(=O)c1ccc(O)cc1 [Ethylparaben, reference compound]
Living Biomass (mean ± s.d.) ([1]; total concentration 0.5%): 18.6 g | Living Biomass (mean ± s.d.) ([1]; total concentration 1.0%): 18.7 g | Living Biomass (mean ± s.d.) ([1]; total concentration 1.5%): 12.9 g | Living Biomass (mean ± s.d.) ([1]; total concentration 2.0%): 13.5 g

O=C(O)c1cccc(O)c1 [3-Hydroxybenzoic acid]
pest or weed control at 1 % [2, 3]: 66.7% | pest or weed control at 1 % [2, 4]: 36.1%

O=C(O)c1ccccc1O [2-Hydroxybenzoic acid]
pest or weed control at 1 % [2, 3]: 100% | pest or weed control at 1 % [2, 4]: > 85%

O=C(O)c1cc(O)cc(O)c1 [3,5-Dihydroxybenzoic acid]
activity on upper or lower leaf surface applications [2]: did not show any activities | pest or weed control at 1 % [2, 3]: 0% | pest or weed control at 1 % [2, 4]: 0%

O=C(O)c1c(O)cccc1O [2,6-Dihydroxybenzoic acid]
pest or weed control at 1 % [2, 3]: 25% | pest or weed control at 1 % [2, 4]: 44.4%

O=C(O)c1ccc(O)c(O)c1O [2,3,4-Trihydroxybenzoic acid]
pest or weed control at 1 % [2, 3]: 11.1% | pest or weed control at 1 % [2, 4]: 44.5%

O=C(O)c1c(O)cc(O)cc1O [2,4,6-Trihydroxybenzoic acid]
activity on upper or lower leaf surface applications [2]: did not show any activities | pest or weed control at 1 % [2, 3]: 11.1% | pest or weed control at 1 % [2, 4]: 0%

O=C(O)c1cc(O)ccc1O [2,5-Dihydroxybenzoic acid]
pest or weed control at 1 % [2, 3]: 11.1% | pest or weed control at 1 % [2, 4]: 52.8%

O=C(O)c1cccnc1 [Nicotinic acid]
activity on upper or lower leaf surface applications [2]: did not show any activities | pest or weed control at 1 % [2, 3]: 0% | pest or weed control at 1 % [2, 4]: 0%

O=C(O)COc1ccccc1 [Phenoxyacetic acid]
pest or weed control at 1 % [2, 5]: 16.7% | pest or weed control at 1 % [2, 6]: 77.8%

O=C(O)c1cc(O)c(O)c(O)c1 [3,4,5-Trihydroxybenzoic acid]
activity on upper or lower leaf surface applications [2]: did not show any activities | pest or weed control at 1 % [2, 3]: 0% | pest or weed control at 1 % [2, 4]: 0%

O=C(O)c1ccc(O)cc1O [2,4-Dihydroxybenzoic acid]
pest or weed control at 1 % [2, 3]: 72.2% | pest or weed control at 1 % [2, 4]: > 85%

O=C(O)c1cccc(O)c1O [2,3-Dihydroxybenzoic acid]
pest or weed control at 1 % [2, 3]: 100% | pest or weed control at 1 % [2, 4]: > 85%

O=C(O)c1ccncc1 [Isonicotinic acid]
pest or weed control at 1 % [2, 3]: 33.3% | pest or weed control at 1 % [2, 4]: 44.5%

O=C(O)c1ccccc1 [Benzoic acid]
pest or weed control at 1 % [2, 5]: 100% | pest or weed control at 1 % [2, 6]: > 85%
